Patent US20230293403A1, “Compositions Comprising Lipophilic Compounds and One or More (Bio)-Alkanediols” (Symrise AG, priority 2020, published 2023)

Columns and labels:
[1] = Solubility of different alkanediols or mixtures thereof in sunflower oil (Example 1); format: physicochemical
Experimental: Each 15 g 1,2-pentanediol, 1,2-hexanediol, 1,2-heptanediol or 1,2-octanediol were dissolved in 85 g sunflower oil. Each 15 g of a mixture of 1,2-octanediol and 2,3-octanediol (95:5) or 1,2-heptanediol and 2,3-heptanediol (95:5) were dissolved in 85 g sunflower oil.

[2] = test system: skin (backside of hand) of untrained panelists; assay: Sensory evaluation by untrained panelists: heptanediols, octanediols and their mixtures blended 85:15 with liquid lipophilic components (Example 4, Table 22); design: species or system human; details: in vivo
Experimental: Test procedure: • Hands were pre-washed with liquid soap by following a defined procedure; • 30 μl of corresponding sample was applied on the backside of each hand (randomized); • After 30 s the spreading behaviour of the respective formulation on skin was evaluated versus the respective oil component without 1,2-heptanediol on a scale from 1 to 5 (1=low spreading; 5=high spreading); • The samples were distributed with the fingertips of middle and forefinger with 2×5 cycles; • After 2 minutes, the fatty/greasy skin feel was evaluated on a scale from 1 to 5 (1=low fatty/greasy skin feel; 5=high fatty/greasy skin feel); • Furthermore the applicants were asked to assess the absorption, i.e. the impression of amount of remaining residue on the skin on a scale from 1 to 5 (1=low absorption; 5=high absorption).
For evaluating the sensory behaviour, liquid lipophilic components specified in the following Table 22 were blended with 1,2-heptanediol or 2,3-heptanediol or a mixture of 1,2-heptanediol and 2,3-heptanediol or 1,2-octanediol or 2,3-octanediol or a mixture of 1,2-octanediol and 2,3-octanediol (formulation) in a ratio of 85:15 and assessed by untrained panelists in comparison to the liquid lipophilic component without addition of the specified alkanediols (placebo).
The test procedure was carried out in the same manner as described in Example 2.

[3] = Maximum solubility of alkanediols in water, visual assessment (Example 6); details: assessed visually at ambient temperature after 24 h storage at 5° C.; clear mixture = dissolved
From the text: For the determination of the maximum water solubility of an alkanediol, water and different concentrations of the respective alkanediol were blended by stirring. […] The determination of whether the alkanediol has dissolved in water is based entirely on visual observation.

Structure (SMILES)	solubility in sunflower oil [1]	improvement in spreading of liquid lipophilic components with poor spreading by nature [2]	Maximum solubility in water [3]
CCCCCC(O)CO (stereo not drawn) [1,2-heptanediol]	better solubility	perform best	2.5 % by weight
CCCCCCCC(O)CO (stereo not drawn) [1,2-nonanediol]			0.1 % by weight
CCCCCCC(O)CO (stereo not drawn) [1,2-octanediol]	tends to precipitate or recrystallize		
CCCCC(O)C(C)O (stereo not drawn) [2,3-heptanediol]			3.6 % by weight
CCCCCCC(O)C(C)O (stereo not drawn) [2,3-nonanediol]			0.3 % by weight
CCCCCC(O)C(C)O (stereo not drawn) [2,3-octanediol]			1.5 % by weight
CCCCCCC(O)CO (stereo not drawn) [Hydrolite ® 8, Caprylyl Glycol]			0.5 % by weight
